The subject of this assay is TPA-induced edema in murine skin. Put plainly: TPA-induced edema in murine skin (mouse ear), topical anti-inflammatory activity. It counts as in vivo, mouse (male CF-1). As to conditions: TPA 1 μg/ear, compound topically in acetone at 100 ug/ear just prior to TPA, 4 h after TPA, 6 mm punch biopsy weight. As for the experimental part:
Anti-inflammatory activities of the investigational compounds were studied in murine skin using the following protocol. Edema was induced by tetradecanoyl phorbol acteate (TPA) (1 μg/ear) [Marks, F., Furstenberger, G., Kownatzki, E., Prostaglandin E Mediated Stimulation of Mouse Epidermis in vivo by Divalent Cation Ionophore A23187 and by Tumor Promotor TPA, Cancer Res. 1981, 41:696-702]. Male CF-1 (Charles River) […] were used. Investigational compounds (in acetone at 100 ug/ear) were applied to one ear just prior to application of the inflammagen. Four hours after TPA application, edema was determined by comparing the weights of 6 mm punch biopsies from control (solvent) and inflammagen-treated ears. Percent inhibitions were calculated using standard equations.
As to `O=CCc1ccc(Cn2cnc3ccccc32)cc1` [Example 1 (Part D), 4-(benzimidazol-1'-ylmethyl)phenylacetaldehyde], the “% Inhibition” value worked out at 63%. Consider `O=CCc1ccc(Cn2ncc3ccccc32)cc1` [Example 2 (Part D), 4-(indazol-1'-ylmethyl)phenylacetaldehyde], for which the “% Inhibition” value came to 98%. With `O=CCc1ccc(Cn2nnc3ccccc32)cc1` [Example 3 (Part D), 4-(benzotriazol-1'-ylmethyl)phenylacetaldehyde] the figure was 46%.

For the origin of these results see US5272169A, “(N-benzyl) acetaldehyde bicyclic heterocycles useful as topical antiinflammatories” (The DuPont Merck Pharmaceutical Company, priority 1993, dated 1993).
